# Experimental data: ChEMBL document CHEMBL1201862, “PubChem BioAssay data set” (2004)
# Calls of active or inactive are those of the source.
# Legend:
# Cytochrome P450 2D6 = Cytochrome P450 2D6 (Homo sapiens, UniProt P10635);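 also: CYP2D6 member of a cytochrome P450 panel assay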
# [1] = biological target: Adenosylmethionine-8-amino-7-oxononanoate aminotransferase (Mycobacterium tuberculosis, UniProt P9WQ81); test: Mycobacterium tuberculosis BioA enzyme inhibitor Measured in Biochemical System Using Plate Reader - 2163-02_Inhibitor_Dose_CherryPick_Activity.; format: functional, Mycobacterium tuberculosis UT205
# Cytochrome P450 3A4 = Cytochrome P450 3A4 (Homo sapiens, UniProt P08684);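 also: CYP3A4 tested as one member of a cytochrome P450 panel screen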
# Cytochrome P450 1A2 = biological target: T1, Cytochrome P450 1A2 (Homo sapiens, UniProt P05177);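 also: PubChem cytochrome P450 panel assay, CYP1A2 panel member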
# T1 sequence (P05177 whole entry): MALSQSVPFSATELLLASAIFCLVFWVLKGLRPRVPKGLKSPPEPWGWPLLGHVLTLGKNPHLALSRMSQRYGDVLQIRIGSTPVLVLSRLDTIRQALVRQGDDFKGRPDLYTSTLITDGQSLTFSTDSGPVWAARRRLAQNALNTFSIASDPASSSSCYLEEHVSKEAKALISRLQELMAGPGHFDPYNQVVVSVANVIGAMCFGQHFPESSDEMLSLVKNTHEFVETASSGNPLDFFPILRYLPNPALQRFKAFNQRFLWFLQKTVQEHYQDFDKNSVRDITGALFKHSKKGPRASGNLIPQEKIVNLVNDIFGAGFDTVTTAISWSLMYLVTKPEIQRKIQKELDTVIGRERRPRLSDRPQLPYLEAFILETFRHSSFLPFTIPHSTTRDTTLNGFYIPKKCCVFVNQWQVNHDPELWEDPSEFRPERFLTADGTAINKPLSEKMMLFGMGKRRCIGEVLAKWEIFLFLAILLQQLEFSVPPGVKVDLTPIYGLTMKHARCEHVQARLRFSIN
# Mu-type opioid receptor = Mu-type opioid receptor (Homo sapiens, UniProt P35372); format: functional, cell-based;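 also: U2OS cells with beta-arrestin recruitment to OPRM1 by beta-gal complementation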
# Fatty acid synthase [2] = biological target: T2, Fatty acid synthase (Homo sapiens, UniProt P49327); test: FAS thioesterase domain inhibitors, dose response, biochemical, endpoint fluorescence intensity, uHTS hits (AID 624327); format: functional;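 also: fluorescence from hydrolysis of an O-methyl fluorescein acyl ester substrate by the enzyme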
# HEK293 = test: inhibitors of LMP1-driven NF-kB reporter, dose response, cell-based, HEK293, luciferase, cherry-pick (AID 588343); format: functional; settings: Homo sapiens
# [3] = control 3'UTR Renilla luciferase suppression, dose response, counter-screen for Shn3 inhibitor project, cell-based, Clone20-Shn3RL, cherry-picked (AID 624133); format: functional
# [4] = biological target: 5-hydroxytryptamine receptor 2A (Mus musculus, UniProt P35363); format: functional, cell-based;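 also: CHO-K1 cells with tagged receptor and beta-arrestin; agonist potency measured as compound-induced activation of the receptor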
# Fatty acid synthase [5] = biological target: T2, Fatty acid synthase; test: FAS thioesterase domain inhibitors, dose response, biochemical, kinetic fluorescence intensity (AID 624326); format: functional;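 also: rate of fluorescence rise from hydrolysis of a fluorogenic O-methyl fluorescein ester substrate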
# [6] = HepG2 cell cytotoxicity, dose response, cytotoxicity control for Shn3 inhibitor project, CellTiter-Glo, cherry-picked (AID 624134); format: functional, cell-based
# Interleukin-8 [7] = biological target: T3, Interleukin-8 (Homo sapiens, UniProt P10145); test: Dose Response confirmation of uHTS small molecule hits for cystic fibrosis induced NFkb Inhibitors in a PAF-induced IL8 counterscreen.; format: functional; settings: read-out: IC50_Mean
# T3 sequence (P10145 whole entry): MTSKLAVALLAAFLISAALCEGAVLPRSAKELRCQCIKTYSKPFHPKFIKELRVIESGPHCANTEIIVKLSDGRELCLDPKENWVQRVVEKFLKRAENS
# [8] = Shn3 3'UTR reporter inhibitors, dose response, cell-based, Clone20 osteoblasts, firefly luciferase, cherry-picked (AID 624132); format: functional;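 also: firefly luciferase luminescence from reporter carrying the Shn3 3'UTR in osteoblasts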
# Interleukin-8 [9] = biological target: T3, Interleukin-8; test: Dose Response confirmation of uHTS small molecule hits for cystic fibrosis induced NFkb Inhibitors in a TNFa-induced IL8 counterscreen.; format: functional; settings: read-out: IC50_Mean
# [10] = biological target: Benomyl/methotrexate resistance protein (Candida albicans, UniProt P28873); test: CaMdr1 efflux pump inhibitor potency, dose response, singleplex, Cherry Pick1 hits (AID 588608); format: functional
# Melanocortin receptor 4 = Melanocortin receptor 4 (Homo sapiens, UniProt P32245); test: MC4R antagonist potency on cAMP, dose response, cell-based, TR-FRET, biased antagonists (AID 602298); format: functional;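 also: antagonist potency against agonist-stimulated cAMP production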
# [11] = nonselective inhibitors of cellular cAMP signaling, dose response, counter-screen for MC4R biased antagonist project, cell-based, TR-FRET cAMP detection (AID 602305); format: functional;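 also: U2OS cells stimulated with forskolin near its EC80 as the cAMP inducer; potency is for inhibition of forskolin-stimulated cAMP signaling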
# [12] = biological target: Mitochondrial peptide methionine sulfoxide reductase (Bos taurus, UniProt P54149); format: functional;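 also: absorbance read-out, biochemical high-throughput dose-response screen for MsrA inhibitors, confirmatory; recombinant bovine MsrA coupled to E. coli TrxB with NADPH and selenocystamine; potency is for inhibitors of MsrA activity on DMSO substrate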
# Sequence of Mitochondrial peptide methionine sulfoxide reductase (P54149 whole entry): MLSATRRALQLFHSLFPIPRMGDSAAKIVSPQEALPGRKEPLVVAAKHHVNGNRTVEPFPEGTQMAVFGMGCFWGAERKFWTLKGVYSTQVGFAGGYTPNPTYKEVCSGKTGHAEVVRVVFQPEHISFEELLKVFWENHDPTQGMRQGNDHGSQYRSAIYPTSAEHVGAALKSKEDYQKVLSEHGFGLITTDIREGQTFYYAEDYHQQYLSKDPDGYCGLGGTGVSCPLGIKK
# T2 sequence (P49327 whole entry, the tested form may be a part): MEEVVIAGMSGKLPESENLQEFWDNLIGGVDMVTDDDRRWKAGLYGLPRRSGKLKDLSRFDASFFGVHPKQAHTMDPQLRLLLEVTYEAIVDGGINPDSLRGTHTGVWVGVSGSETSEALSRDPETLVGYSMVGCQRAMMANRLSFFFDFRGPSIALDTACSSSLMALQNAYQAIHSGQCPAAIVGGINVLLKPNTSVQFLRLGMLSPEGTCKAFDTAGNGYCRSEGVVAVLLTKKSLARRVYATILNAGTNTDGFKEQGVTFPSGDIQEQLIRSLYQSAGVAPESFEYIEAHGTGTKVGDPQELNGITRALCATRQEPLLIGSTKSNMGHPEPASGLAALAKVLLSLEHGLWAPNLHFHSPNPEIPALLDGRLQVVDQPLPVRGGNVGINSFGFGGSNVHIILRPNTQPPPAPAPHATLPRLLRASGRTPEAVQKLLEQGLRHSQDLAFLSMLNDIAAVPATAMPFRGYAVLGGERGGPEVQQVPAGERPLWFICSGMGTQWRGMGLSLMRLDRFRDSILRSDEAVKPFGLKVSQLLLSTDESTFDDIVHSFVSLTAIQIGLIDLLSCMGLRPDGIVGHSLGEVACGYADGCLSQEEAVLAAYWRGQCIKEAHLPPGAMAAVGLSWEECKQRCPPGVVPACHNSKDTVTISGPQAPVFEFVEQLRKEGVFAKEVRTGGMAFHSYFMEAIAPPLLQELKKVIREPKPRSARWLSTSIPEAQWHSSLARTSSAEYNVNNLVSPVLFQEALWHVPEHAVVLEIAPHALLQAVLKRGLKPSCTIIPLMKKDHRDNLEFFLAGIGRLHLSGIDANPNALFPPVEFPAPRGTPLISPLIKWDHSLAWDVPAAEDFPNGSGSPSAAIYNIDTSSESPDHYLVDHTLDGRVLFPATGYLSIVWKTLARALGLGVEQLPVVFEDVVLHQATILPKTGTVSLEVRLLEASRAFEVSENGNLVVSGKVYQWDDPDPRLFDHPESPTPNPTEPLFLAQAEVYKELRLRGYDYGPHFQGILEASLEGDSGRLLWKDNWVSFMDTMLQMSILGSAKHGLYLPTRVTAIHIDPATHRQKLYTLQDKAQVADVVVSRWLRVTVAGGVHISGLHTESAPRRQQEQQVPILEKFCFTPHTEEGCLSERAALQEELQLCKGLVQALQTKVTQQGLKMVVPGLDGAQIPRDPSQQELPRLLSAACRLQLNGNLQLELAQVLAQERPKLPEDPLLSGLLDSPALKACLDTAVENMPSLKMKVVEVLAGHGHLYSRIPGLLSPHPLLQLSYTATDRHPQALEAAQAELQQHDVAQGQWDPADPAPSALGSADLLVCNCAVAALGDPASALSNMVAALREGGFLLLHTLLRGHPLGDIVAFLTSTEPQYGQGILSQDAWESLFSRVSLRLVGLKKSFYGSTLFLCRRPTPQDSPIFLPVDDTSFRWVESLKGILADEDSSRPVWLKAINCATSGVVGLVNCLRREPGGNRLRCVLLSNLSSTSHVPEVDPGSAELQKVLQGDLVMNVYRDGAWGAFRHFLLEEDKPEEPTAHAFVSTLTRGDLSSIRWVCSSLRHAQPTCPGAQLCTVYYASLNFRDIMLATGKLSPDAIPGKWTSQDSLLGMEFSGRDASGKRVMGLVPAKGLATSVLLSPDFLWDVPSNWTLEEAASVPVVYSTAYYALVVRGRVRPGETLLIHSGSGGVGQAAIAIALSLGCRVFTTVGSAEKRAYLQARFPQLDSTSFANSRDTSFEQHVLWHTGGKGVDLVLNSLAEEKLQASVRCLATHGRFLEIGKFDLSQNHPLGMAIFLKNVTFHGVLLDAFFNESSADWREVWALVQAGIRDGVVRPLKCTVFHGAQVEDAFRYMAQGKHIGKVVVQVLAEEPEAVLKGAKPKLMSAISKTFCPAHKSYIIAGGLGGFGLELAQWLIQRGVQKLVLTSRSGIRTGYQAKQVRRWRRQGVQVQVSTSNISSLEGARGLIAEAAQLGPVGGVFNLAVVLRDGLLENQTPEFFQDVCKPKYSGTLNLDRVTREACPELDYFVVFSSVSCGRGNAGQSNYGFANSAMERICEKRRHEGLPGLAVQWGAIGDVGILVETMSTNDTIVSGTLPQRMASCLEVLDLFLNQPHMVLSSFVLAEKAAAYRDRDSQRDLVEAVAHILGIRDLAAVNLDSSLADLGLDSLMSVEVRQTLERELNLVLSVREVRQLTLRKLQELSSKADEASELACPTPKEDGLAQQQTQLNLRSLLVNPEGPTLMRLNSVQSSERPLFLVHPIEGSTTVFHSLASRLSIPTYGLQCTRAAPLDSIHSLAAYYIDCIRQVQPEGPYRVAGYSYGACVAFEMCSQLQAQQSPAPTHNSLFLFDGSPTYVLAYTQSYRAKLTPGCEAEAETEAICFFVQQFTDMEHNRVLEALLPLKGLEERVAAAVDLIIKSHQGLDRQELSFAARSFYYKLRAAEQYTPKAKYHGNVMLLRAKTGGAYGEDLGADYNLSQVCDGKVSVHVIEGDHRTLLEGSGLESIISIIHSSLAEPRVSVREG
# Sequence of Adenosylmethionine-8-amino-7-oxononanoate aminotransferase (P9WQ81 whole entry): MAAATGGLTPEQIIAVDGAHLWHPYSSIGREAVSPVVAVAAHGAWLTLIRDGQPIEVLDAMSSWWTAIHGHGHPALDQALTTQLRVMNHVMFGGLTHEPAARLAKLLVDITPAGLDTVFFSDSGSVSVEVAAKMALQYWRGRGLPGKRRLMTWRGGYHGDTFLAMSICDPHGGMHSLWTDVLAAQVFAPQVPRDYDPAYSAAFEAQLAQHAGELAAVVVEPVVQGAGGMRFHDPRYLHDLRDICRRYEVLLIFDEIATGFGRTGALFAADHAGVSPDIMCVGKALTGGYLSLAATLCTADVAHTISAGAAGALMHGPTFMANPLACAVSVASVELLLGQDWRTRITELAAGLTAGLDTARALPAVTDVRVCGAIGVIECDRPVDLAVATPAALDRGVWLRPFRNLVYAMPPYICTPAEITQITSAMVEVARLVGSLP
# Sequence of Cytochrome P450 3A4 (P08684 whole entry): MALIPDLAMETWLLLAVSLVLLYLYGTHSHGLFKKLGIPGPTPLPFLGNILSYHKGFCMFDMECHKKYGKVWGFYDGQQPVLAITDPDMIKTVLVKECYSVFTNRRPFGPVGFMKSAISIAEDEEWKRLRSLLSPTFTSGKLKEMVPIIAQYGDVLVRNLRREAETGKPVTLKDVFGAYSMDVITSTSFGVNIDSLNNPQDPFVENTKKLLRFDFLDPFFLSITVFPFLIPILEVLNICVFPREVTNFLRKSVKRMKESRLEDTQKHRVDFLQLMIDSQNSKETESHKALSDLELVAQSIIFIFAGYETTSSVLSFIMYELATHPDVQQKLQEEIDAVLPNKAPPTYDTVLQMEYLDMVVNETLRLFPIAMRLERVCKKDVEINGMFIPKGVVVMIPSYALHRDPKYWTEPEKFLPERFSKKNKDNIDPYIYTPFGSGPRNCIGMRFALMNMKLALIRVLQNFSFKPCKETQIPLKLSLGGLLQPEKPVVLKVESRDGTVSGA
# Sequence of Melanocortin receptor 4 (P32245 whole entry): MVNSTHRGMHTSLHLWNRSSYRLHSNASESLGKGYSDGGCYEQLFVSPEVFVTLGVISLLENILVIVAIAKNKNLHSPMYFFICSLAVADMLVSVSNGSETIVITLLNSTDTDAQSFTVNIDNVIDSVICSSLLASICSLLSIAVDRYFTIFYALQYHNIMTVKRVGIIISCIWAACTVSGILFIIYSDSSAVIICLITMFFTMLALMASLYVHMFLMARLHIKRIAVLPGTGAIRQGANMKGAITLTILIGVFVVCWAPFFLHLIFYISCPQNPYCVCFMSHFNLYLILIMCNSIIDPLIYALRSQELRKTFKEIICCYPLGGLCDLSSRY
# Sequence of Cytochrome P450 2D6 (P10635 whole entry): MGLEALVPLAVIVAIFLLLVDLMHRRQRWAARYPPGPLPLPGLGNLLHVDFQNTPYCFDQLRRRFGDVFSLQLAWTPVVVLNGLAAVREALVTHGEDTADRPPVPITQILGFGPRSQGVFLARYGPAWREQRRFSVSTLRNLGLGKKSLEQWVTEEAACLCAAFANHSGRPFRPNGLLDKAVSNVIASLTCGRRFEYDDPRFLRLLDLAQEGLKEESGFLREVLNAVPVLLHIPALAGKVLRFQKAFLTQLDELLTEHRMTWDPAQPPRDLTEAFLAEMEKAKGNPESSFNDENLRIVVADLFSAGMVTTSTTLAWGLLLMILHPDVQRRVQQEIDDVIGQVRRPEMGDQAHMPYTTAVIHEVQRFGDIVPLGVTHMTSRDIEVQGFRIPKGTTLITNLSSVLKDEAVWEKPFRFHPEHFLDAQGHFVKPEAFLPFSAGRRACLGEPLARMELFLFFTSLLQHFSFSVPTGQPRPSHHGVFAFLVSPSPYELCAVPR
# Sequence of Mu-type opioid receptor (P35372 whole entry, the tested form may be a part): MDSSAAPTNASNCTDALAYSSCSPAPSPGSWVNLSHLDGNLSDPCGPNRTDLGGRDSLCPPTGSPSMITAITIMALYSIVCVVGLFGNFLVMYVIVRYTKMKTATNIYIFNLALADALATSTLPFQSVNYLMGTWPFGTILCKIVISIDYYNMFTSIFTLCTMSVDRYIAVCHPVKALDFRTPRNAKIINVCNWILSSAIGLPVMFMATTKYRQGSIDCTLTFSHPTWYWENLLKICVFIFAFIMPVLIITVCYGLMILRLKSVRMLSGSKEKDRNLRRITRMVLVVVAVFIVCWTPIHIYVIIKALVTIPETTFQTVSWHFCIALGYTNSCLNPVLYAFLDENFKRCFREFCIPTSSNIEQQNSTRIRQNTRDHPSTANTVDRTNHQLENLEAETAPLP
structure (smiles),measurement,setting,value
Cc1ccc(Cc2c(C)nc3nc(SCC(=O)NCc4ccco4)nn3c2C)cc1,AC50,Cytochrome P450 2D6,25.1 µM (inconclusive)
same,AC50,[1],4.86 µM (active)
same,AC50,Cytochrome P450 3A4,3.16 µM (inconclusive)
same,AC50,Cytochrome P450 1A2,0.00631 µM (inconclusive)
O=[N+]([O-])c1ccc2ncnc(N3CCN(Cc4ccc5c(c4)OCO5)CC3)c2c1,EC50,Mu-type opioid receptor,92.5 µM (inactive)
same,IC50,Fatty acid synthase [2],1.39 µM (active)
same,AC50,HEK293,5.4 µM (active)
same,AC50,[3],26.5 µM (active)
same,EC50,[4],3.78 µM (active)
same,IC50,Fatty acid synthase [5],0.843 µM (active)
same,AC50,[6],35.6 µM (active)
same,IC50,Interleukin-8 [7],47.9 µM (inactive)
same,AC50,[8],2.73 µM (active)
same,IC50,Interleukin-8 [9],40.4 µM (inactive)
COc1cccc(C2CC(c3ccccc3)=NN2S(=O)(=O)c2ccc(C)cc2)c1OC (stereo not drawn),EC50,[10],9.58 µM (active)
Cc1[nH]c(C)c(C(=O)/C=C/c2ccc([N+](=O)[O-])cc2)c1C,IC50,Melanocortin receptor 4,> 64.6 µM (inactive)
same,IC50,[11],> 64.6 µM (inactive)
CCCCCOC(=O)C(C)c1c(C)nc(S)nc1O (stereo not drawn),IC50,[12],115 µM (inactive)
